Square brackets hold non-standard residues; d marks the D form. Peptide text beside a SMILES is read from it. * marks the point of attachment. Trp(1-Me) = Cn1cc(C[C@H](N)C(=O)O)c2ccccc21; Tic = O=C(O)[C@@H]1Cc2ccccc2CN1; pGlu = O=C1CC[CH](C(=O)O)N1; Hyp = O=C(O)[CH]1C[CH](O)CN1; Phg = N[CH](C(=O)O)c1ccccc1; ΔPro = O=C(O)[C@@H]1C=CCN1; Pip = O=C(O)[C@@H]1CCCCN1; αMeP = C[C]1(C(=O)O)CCCN1; Cbz = O=C(OCc1ccccc1)*; Aze = O=C(O)[CH]1CCN1; Boc = CC(C)(C)OC(=O)*

The text below walks through data of patent US5504071A, “Compounds with a sequence of three radicals, the central one being α- a” (Polifarma S.p.A., priority 1990, dated 1996).

Assay [1] is described as follows: Hot Plate test (analgesic activity). The class given is in vivo. An excerpt: (§1) In the following examples will first of all be given the data necessary for synthesis of the compounds according to the present invention. There will then be given data regarding their pharmacological activity, using methods widely known to be valid. In particular, for the pressure tests, spontaneously hyper-tensive rats were used (SHR from the company Charles River), operated in such a way as to enable pressure to be read even when the animals were awake and free to move. In order to evaluate the analgesic activity, the Hot Plate and Writhing Tests were used. For the anti-inflammatory effect the test of carraginine edema was used. Finally, for immuno-modulating activity the evaluation of the stimulation of growth of human lymphocytes in culture was resorted to, after the addition of specific antigens. The results obtained for each synthesized compound are given at the end of each example.
(In hot-plate and tail-flick tests a longer latency is read as antinociception.)

For assay [2], the system named is human lymphocytes in culture. As to the kind of experiment: stimulation of growth of human lymphocytes in culture after addition of specific antigens. It counts as cell-based. Particulars: for immune response (immuno-stimulating activity): antigen not stated.
Source text: as §1

Assay [3] has as its system spontaneously hyper-tensive rats (SHR). As to the kind of experiment: pressure tests in awake spontaneously hypertensive rats. The class given is in vivo.
Source text: as §1

The test system of another assay is carraginine edema. As to the kind of experiment: carraginine edema test (anti-inflammatory effect). To be noted: dose not stated. The class given is in vivo.
Source text: as §1

Assay [4] can be described thus: analgesic activity, test not specified (Hot Plate and Writhing Tests). Particulars: test and dose not stated. It counts as in vivo.
Source text: as §1
On the technique in general: In writhing tests, fewer writhes than in controls are read as antinociception.

Assay [5] is described as follows: Writhing test (analgesic activity). The class given is in vivo. Particulars: dose not stated.
Source text: as §1

As for `CCOC(=O)[C@@H]1Cc2c([nH]c3ccccc23)CN1C(=O)[C@H](C)NC(=O)[C@@H]1CCCN1C(=O)OCc1ccccc1` [compound 1, Z-(L)-Pro-(L)-Ala-(S)-CytOEt], the “pain killing effect under the Hot Plate test” value in assay [1] (4 mg/Kg i.p.) is listed as “slight pain killing effect”. In addition, the “response of lymphocytes stimulated by phytohemoagglutinine (PHA)” value in assay [2] (PHA stimulation) is “increases the response of lymphocytes”. Moreover, in assay [3] (4 mg/Kg i.p.), the anti-hypertensive effect result was “good anti-hypertensive effect” and the “duration of the anti-hypertensive effect” value is on record as “maintained for a number of hours”.

In the case of `C[C@H](NC(=O)[C@@H]1CCCN1C(=O)OCc1ccccc1)C(=O)NCCc1c[nH]c2ccccc12` [compound 2, Z-(L)-Pro-(L)-Ala-TrpH], the “immune response (immuno-stimulating activity)” value (“immune response” below) in assay [2] is “increased, but to a lesser extent than in the previous compound”. Besides, the anti-hypertensive effect result in assay [3] (dose not stated) is recorded as “comparable to that of compound 1”.

For the compound `C[C@H](NC(=O)[C@@H]1CCCN1C(=O)OCc1ccccc1)C(=O)N1CCc2c([nH]c3ccccc23)C1` [compound 3, Z-(L)-Pro-(L)-Ala-CytH], the anti-hypertensive effect result in assay [3] (8 mg/Kg i.p.) is recorded as “bland anti-hypertensive effect”.

Turning to `COC(=O)[C@H](Cc1ccc(OC)cc1)NC(=O)[C@H](C)NC(=O)[C@@H]1CCCN1C(=O)OCc1ccccc1` [compound 4, Z-(L)-Pro-(L)-Ala-(L)-OmtOMe] (Cbz-Pro-Ala-Tyr(Me)-OMe), in assay [2], the “immune response” value is “slightly increased”. Moreover, in assay [3] (8 mg/Kg i.v.), the anti-hypertensive effect entry is given as “bland anti-hypertensive effect”.

Consider `COC(=O)[C@@H](NC(=O)[C@H](C)NC(=O)[C@@H]1CCCN1C(=O)OCc1ccccc1)c1ccccc1` [compound 5, Z-(L)-Pro-(L)-Ala-(L)-PhgOMe] (Cbz-Pro-Ala-[Phg]-OMe), for which, in assay [1] (dose not stated), the “analgesic effect using the Hot Plate test” value is recorded as “moderate analgesic effect”. In assay [3] (8 mg/Kg i.p.), the anti-hypertensive effect result is on record as “bland anti-hypertensive effect”.

For the compound `COC(=O)[C@H](Cc1cn(C)c2ccccc12)NC(=O)[C@H](C)NC(=O)[C@@H]1CCCN1C(=O)OCc1ccccc1` [compound 7, Z-(L)-Pro-(L)-Ala-(1)-Me-(L)-TrpOMe] (Cbz-Pro-Ala-[Trp(1-Me)]-OMe), in assay [3] (2 mg/Kg i.v.), the anti-hypertensive effect result is “good anti-hypertensive effect” and the reduction of pressure is 10%.

On to `COC(=O)[C@H](Cc1c[nH]c2ccccc12)NC(=O)[C@H](CC(C)C)NC(=O)c1ccco1` [compound 8, 2-Fur-(L)-Leu-(L)-TrpOMe], for which the anti-inflammatory effect entry in the assay with carraginine edema was “slight anti-inflammatory effect”. For the same compound, in assay [2], the “immune response” value is “strongly stimulated even with small doses of peptide”. Further, the anti-hypertensive effect result in assay [3] (4 mg/Kg i.v.) is given as “slight anti-hypertensive effect”.

On to `COC(=O)[C@H](Cc1c[nH]c2ccccc12)NC(=O)[C@H](CC(C)C)NC(=O)c1ccc[nH]1` [compound 9, 2-Pyrrolyl-(L)-Leu-(L)-TrpOMe], for which the anti-inflammatory effect entry in the assay on carraginine edema is “bland reduction of inflammatory responses”. In assay [3] (dose not stated), the anti-hypertensive effect entry was “slight effect on pressure”.

Regarding `COC(=O)C(Cc1c[nH]c2ccccc12)NC(=O)C(CC(C)C)NC(=O)C1CCCN1C.Cl` (stereo not shown) [compound 10, N-Me-(L)-Pro(L)-Leu-(L)-TrpOMe.HCl], in assay [4], the analgesic activity result is given as “low analgesic effect”. In addition, the “immune response” value in assay [2] is “slightly increased”. In addition, the anti-hypertensive effect entry in assay [3] (2 mg/Kg i.v.) is listed as “excellent anti-hypertensive effect”.

With `COC(=O)[C@@H]1Cc2ccccc2CN1C(=O)[C@H](C)NC(=O)[C@@H]1CCCN1C(=O)OCc1ccccc1` [compound 11, Z-(L)-Pro-(L)-Ala-CypOMe] (Cbz-Pro-Ala-[Tic]-OMe), the anti-inflammatory effect result in the assay with carraginine edema is listed as “moderate anti-inflammatory effect”. The anti-hypertensive effect entry in assay [3] (dose not stated) was “slight anti-hypertensive effect”.

In the case of `COC(=O)C(Cc1c[nH]c2ccccc12)NC(=O)C(CC(C)C)NC(=O)C1(C)CCCN1C(=O)OC(C)(C)C` (stereo not drawn) [compound 12, Boc-(L)-Mep-(L)-Leu-(L)TrpOMe] (Boc-[αMeP]-Leu-Trp-OMe; configuration not given here), the anti-inflammatory effect entry in the assay on carraginine edema is given as “reduction of the inflammatory response”. Further, the anti-hypertensive effect entry in assay [3] (dose not stated) is recorded as “bland anti-hypertensive effect”.

Take `COC(=O)[C@H](Cc1c[nH]c2ccccc12)NC(=O)[C@H](CC(C)C)NC(=O)[C@@H]1C=CCN1C(=O)OC(C)(C)C` [compound 13, Boc-.gradient.^3.4 -(L)-Pro-(L)-Leu-(L)-TrpOMe] (Boc-[ΔPro]-Leu-Trp-OMe): the “immune response” value in assay [2] is on record as “slightly increases the immune response”. Also, the anti-hypertensive effect result in assay [3] (dose not stated) is “slightly anti-hypertensive”.

On to `COC(=O)[C@H](Cc1c[nH]c2ccccc12)NC(=O)[C@H](CC(C)C)NC(=O)[C@@H]1Cc2ccccc2N1C(=O)OCc1ccccc1` [compound 14, Z-(S)-Dhi-(L)-Leu-(L)-TrpOMe], for which, in assay [4], the analgesic activity entry is reported as “moderate analgesic effect”. The anti-hypertensive effect result in assay [3] (dose not stated) was “bland reduction of pressure”.

Take `COC(=O)[C@H](Cc1c[nH]c2ccccc12)NC(=O)[C@H](CC(C)C)NC(=O)[C@@H]1CCCCN1C(=O)OCc1ccccc1` [compound 15, Z-(L)-Pip-(L)-Leu-(L)-TrpOMe] (Cbz-[Pip]-Leu-Trp-OMe): in the assay with carraginine edema, the anti-inflammatory effect entry is listed as “consistent”. Further, the “immune response” value in assay [2] was “slight increase in immune response”. In assay [3] (2 mg/Kg i.v.), the anti-hypertensive effect entry is given as “good anti-hypertensive effect” and the reduction of pressure entry was “up to 30%”.

On to `COC(=O)C(Cc1c[nH]c2ccccc12)NC(=O)C(CC(C)C)NC(=O)C1CC(O)CN1C(=O)OCc1ccccc1` (stereo not drawn) [compound 16, Z-(L)-Hyp-(L)-Leu-(L)-TrpOMe] (Cbz-[Hyp]-Leu-Trp-OMe; configuration not given here), for which the analgesic activity result in assay [4] is listed as “modest analgesic effect”. Besides, in assay [3] (dose not stated), the anti-hypertensive effect entry is listed as “bland anti-hypertensive action”.

In the case of `COC(=O)C(Cc1c[nH]c2ccccc12)NC(=O)C(CC(C)C)NC(=O)C1CCN1C(=O)OCc1ccccc1` [compound 17, Z-(S)-Aze-(L)-Leu-(L)-TrpOMe] (Cbz-[Aze]-Leu-Trp-OMe; configuration not given here), the anti-inflammatory effect entry in the assay on carraginine edema is “bland anti-inflammatory activity”. Besides, the anti-hypertensive effect result in assay [3] (dose not stated) was “slight anti-hypertensive effect”.

Consider `COC(=O)[C@H](Cc1c[nH]c2ccccc12)NC(=O)[C@H](CC(C)C)NC(=O)[C@@H]1CCCO1` [compound 18, (S)-Tfc-(L)-Leu-(L)-TrpOMe], for which the “immune response” value in assay [2] is “stimulates the immune response in a moderate manner”. Further, the anti-hypertensive effect result in assay [3] (dose not stated) is listed as “bland anti-hypertensive effect”.

Turning to `COC(=O)[C@H](Cc1c[nH]c2ccccc12)NC(=O)[C@H](CC(C)C)NC(=O)[C@@H]1CCC(=O)N1C(=O)OCc1ccccc1` [compound 19, Z-(L)-Pyr-(L)-Leu-(L)-TrpOMe], the anti-inflammatory effect entry in the assay on carraginine edema is recorded as “fair anti-inflammatory activity”. Also, the anti-hypertensive effect result in assay [3] (dose not stated) is on record as “slight anti-hypertensive effect”.

Take `COC(=O)[C@@H]1Cc2c([nH]c3ccccc23)CN1C(=O)[C@H](CC(C)C)NC(=O)[C@@H]1CCC(=O)N1C(=O)OCc1ccccc1` [compound 20, Z-(L)-Pyr-(L)-Leu-(S)-CytOMe]: the anti-inflammatory effect result with carraginine edema is “fair anti-inflammatory activity”. For the same compound, the anti-hypertensive effect entry in assay [3] (dose not stated) is on record as “bland anti-hypertensive activity”.

Take `COC(=O)[C@@H]1Cc2ccccc2CN1C(=O)[C@H](CC(C)C)NC(=O)[C@@H]1CCC(=O)N1C(=O)OCc1ccccc1` [compound 21, Z-CL)-Pyr-(L)-Leu-(S)-CypOMe]: in assay [2], the “immune response” value is “good immuno-stimulating activity”. In addition, the anti-hypertensive effect result in assay [3] (dose not stated) was “slight anti-hypertensive activity”.

Consider `COC(=O)C(NC(=O)CNC(=O)C1CCC(=O)N1)c1ccccc1` (stereo not drawn) [compound 22, (L)-Pyr-Gly-(L)-PhgOMe] ([pGlu]-Gly-[Phg]-OMe; configuration not given here), for which, in the assay on carraginine edema, the anti-inflammatory effect entry is on record as “very good” and the reduction of edema came out at 70%. The “immune response” value in assay [2] is “appears to increase the immune response”. In addition, in assay [3] (4 mg/Kg i.p.), the anti-hypertensive effect entry is “excellent anti-hypertensive activity” and the “reduction of pressure values” is on record as 20%.

For `COC[C@H](Cc1ccccc1)NC(=O)CNC(=O)[C@@H]1CCC(=O)N1` [compound 23, (L)-Pyr-Gly-(L)-Pme], the “reduction of contorsions during the Writhing test” value in assay [5] came out at 80%. In addition, the analgesic activity entry in assay [4] is recorded as “excellent analgesic effect”. The “immune response” value in assay [2] is “good immuno-stimulating effect”. The anti-hypertensive effect entry in assay [3] (8 mg/Kg i.p.) is “good anti-hypertensive activity”.

On to `COC(=O)[C@@H]1Cc2ccccc2CN1C(=O)CNC(=O)[C@@H]1CCC(=O)N1` [compound 24, (L)-Pyr-Gly-(L)-CypOMe] ([pGlu]-Gly-[Tic]-OMe), for which the anti-inflammatory effect entry in the assay with carraginine edema is recorded as “moderate anti-inflammatory action”. In addition, the anti-hypertensive effect result in assay [3] (dose not stated) is recorded as “bland anti-hypertensive action”.

`COC(=O)[C@@H]1Cc2c([nH]c3ccccc23)CN1C(=O)[C@H](CC(C)C)NC(=O)[C@@H]1CCC(=O)N1` [compound 25, (L)-Pyr-(L)-Leu-(S)-CytOMe]: in assay [4], the analgesic activity result was “weak analgesic activity”. In addition, the anti-hypertensive effect entry in assay [3] (dose not stated) is “bland anti-hypertensive effect”.
